# Data reported in patent US20260022127A1, “HEXACYCLIC TOPOISOMERASE INHIBITORS HAVING CYTOTOXIC ACTIVITY ON CANCER CELLS” (priority 2022, published 2026).
# Where two headings read alike, the source gives them in different places.
# Tested on: SKBR-3 cell line (human breast cancer)
# Assay: 2D-cytotoxicity assay of free payloads (Cell titer glow, 72 hours)
# Format: cell-based
# Procedure: Protocol: Day 1:5,000 cells/well were plated and incubated at 37° C. overnight, unless otherwise noted.
# Day 2: Payload/vehicle control dilutions were made in respective media and added to cells. Volume added: 50 μL to each well. Starting treatment concentration was 0.1 mM for free payloads/10% for vehicle control and then diluted 10-fold down for a total of 11 treatment dilutions. Each concentration was analyzed in triplicates. Media-only wells was used as a control to calculate percent viability.
# Day 5: Cell titer glow reagent (volume: 50 μL) was added to each well, the plate was shaken for 5 mins and the luminescence was recorded.
# Drug Treatment Time: 72 hours.
# Data Analysis: Percent viability was calculated by dividing the luminescence signal obtained for each treated well by the untreated well (media-only control) and multiplying by 100. Data was next transformed using X=Log (x) and then analyzed with nonlinear regression (curve fit), Dose Response inhibition−log (inhibitor) vs response (3 parameters) using PRISM software to determine the IC50 value.
# [1] = Homo sapiens, SK-BR-3, SKBR-3, 5,000 cells/well, read-out: IC50
# [2] = Homo sapiens, SK-BR-3, 72 h, SKBR-3, 5,000 cells/well
# [3] = SKBR-3, 5,000 cells/well, read-out: IC50
# [4] = Homo sapiens, SK-BR-3, SKBR-3, 2000 cells/well, read-out: IC50
compound,measurement,setting,value
CC[C@@]1(O)C(=O)OCc2c1cc1n(c2=O)Cc2c-1nc1cc(F)c(C)c3c1c2C(O)CC3 (some centres unmarked) [Compound E-1],IC50,[1],3.27 nM
CC[C@@]1(O)C(=O)OCc2c1cc1n(c2=O)C(C)(C)c2c-1nc1cc(F)c(C)c3c1c2CCC3 [Compound E-25],IC50,[1],3040 nM
CC[C@@]1(O)C(=O)OCc2c1cc1n(c2=O)Cc2c-1nc1cc(F)c(C)c3c1c2C(=O)CC3 [Compound E-2],IC50,"Homo sapiens, SK-BR-3, 72 h, SKBR-3, 5,000 cells/well, payload in ACN:Water",27.7 nM
same,IC50,"Homo sapiens, SK-BR-3, 72 h, SKBR-3, 5,000 cells/well, payload in DMSO",73.2 nM
CC[C@@]1(O)C(=O)OCc2c1cc1n(c2=O)Cc2c-1nc1cc(F)c(C)c3c1c2C(=NO)CC3 [Compound E-29],IC50,[2],15.5 nM
Exatecan Mesylate [reference compound],IC50,[3],2.45 nM
C=CCC1(CC=C)c2c(nc3cc(F)c(C)c4c3c2CCC4)-c2cc3c(c(=O)n21)COC(=O)[C@]3(O)CC [Compound E-23],IC50,[1],3580 nM
CC[C@@]1(O)C(=O)OCc2c1cc1n(c2=O)C2(CC=CC2)c2c-1nc1cc(F)c(C)c3c1c2CCC3 [Compound E-24],IC50,[1],517 nM
"CC[C@@]1(O)C(=O)OCc2c1cc1n(c2=O)Cc2c-1nc1cc(F)c(C)c3c1c2[C@@H](OCNC(=O)CN)CC3 (single isomer, unassigned) [E-35b*]",IC50,[4],58.8 nM
CC[C@@]1(O)C(=O)OCc2c1cc1n(c2=O)Cc2c-1nc1cc(F)c(C)c3c1c2CCC3 [Compound E-18],IC50,[2],1.1 nM
CC[C@@]1(OC(=O)CCCN)C(=O)OCc2c1cc1n(c2=O)Cc2c-1nc1cc(F)c(C)c3c1c2CCC3 [Compound E-43],IC50,[4],32.5 nM
C=CCC1c2c(nc3cc(F)c(C)c4c3c2CCC4)-c2cc3c(c(=O)n21)COC(=O)[C@]3(O)CC (some centres unmarked) [Compound E-21],IC50,[1],415 nM
CCC1(O)C(=O)OCc2c1cc1n(c2=O)Cc2c-1nc1cc(F)c(C)c3c1c2CCC3 (centres unmarked) [Compound E-10],IC50,[2],2.7 nM
CC[C@@]1(O)C(=O)OCc2c1cc1n(c2=O)Cc2c-1nc1cc(F)c(C)c3c1c2C(OCNC(=O)CN)CC3 (some centres unmarked) [Compound E-35],IC50,[2],7.68 nM
C#CCOC1c2c(nc3cc(F)c(C)c4c3c2CCC4)-c2cc3c(c(=O)n21)COC(=O)[C@]3(O)CC (some centres unmarked) [Compound E-22],IC50,[1],76.3 nM
"CC[C@@]1(O)C(=O)OCc2c1cc1n(c2=O)Cc2c-1nc1cc(F)c(C)c3c1c2[C@@H](NC(=O)CO)CC3 [Exatecan Glycolamide, reference compound]",IC50,[3],5.06 nM
CC[C@@]1(O)C(=O)OCc2c1cc1n(c2=O)Cc2c-1nc1cc(F)c(C)c3c1c2C(OCNC(=O)CNC)CC3 (some centres unmarked) [Compound E-42],IC50,"Homo sapiens, SK-BR-3, 72 h, SKBR-3, 1000 cells/well",12 nM
"CC[C@@]1(O)C(=O)OCc2c1cc1n(c2=O)Cc2c-1nc1cc(F)c(C)c3c1c2[C@H](OCNC(=O)CN)CC3 (single isomer, unassigned) [E-35a*]",IC50,[4],28.1 nM
CC[C@@]1(O)C(=O)OCc2c1cc1n(c2=O)C(O)c2c-1nc1cc(F)c(C)c3c1c2CCC3 (some centres unmarked) [Compound E-19],IC50,[2],75.7 nM
CC[C@@]1(O)C(=O)OCc2c1cc1n(c2=O)Cc2c-1nc1c(Cl)c(F)c(C)c3c1c2CCC3 [Compound E-38],IC50,[1],35 nM
